Measured values taken from US4237225A, “Process for preparing tunicamycin” (priority 1978, dated 1980).

What was measured:
Type in all cases: cell-based
[1] = system: Candida albicans; assay: standard paper-disc inhibition test, zone of inhibition, Candida albicans; conditions: in vitro
Excerpt: (§1) The zones of inhibition, as determined in these tests, are shown below: […]

[2] = system: Bacillus subtilis; assay: standard paper-disc inhibition test, zone of inhibition, Bacillus subtilis; conditions: in vitro
Excerpt: as §1

[3] = system: Saccharomyces pastorianus; assay: standard paper-disc inhibition test, zone of inhibition, Saccharomyces pastorianus; conditions: in vitro
Excerpt: as §1

[4] = system: Neurospora crassa; assay: standard paper-disc inhibition test, zone of inhibition, Neurospora crassa; conditions: in vitro
Excerpt: as §1

[5] = system: Staphylococcus aureus; assay: standard paper-disc inhibition test, zone of inhibition, Staphylococcus aureus; conditions: in vitro
Excerpt: as §1

[6] = system: certain pathogenic organisms, particularly gram positive bacteria, fungi, and yeasts; assay: in vitro standard paper-disc inhibition tests (summary statement)
Excerpt: as §1

[7] = system: Micrococcus luteus; assay: standard paper-disc inhibition test, zone of inhibition, Micrococcus luteus; conditions: in vitro
Excerpt: as §1

[8] = Bacillus subtilis in minimal medium

Structure (SMILES) | Zone Diameter [1] [mm] | Zone Diameter [2, 8] [mm] | Zone Diameter ([2]; Bacillus subtilis) [mm] | Zone Diameter [3] [mm] | Zone Diameter [4] | Zone Diameter [5] | growth inhibition of certain pathogenic organisms [6] | Zone Diameter [7]
CC(=O)NC1C(OC2OC(CC(O)C3OC(n4ccc(=O)[nH]c4=O)C(O)C3O)C(O)C(O)C2NC(=O)/C=C/CCCCCCCCCC(C)C)OC(CO)C(O)C1O (stereo not drawn) [Tunicamycin A] | 15 | 35 | 25 | 18 | 10 mm | tr (trace (6.5-9 mm)) | inhibit the growth | –
CC(=O)NC1C(OC2OC(CC(O)C3OC(n4ccc(=O)[nH]c4=O)C(O)C3O)C(O)C(O)C2NC(=O)/C=C/CCCCCCCCCCC(C)C)OC(CO)C(O)C1O (stereo not drawn) [Tunicamycin B] | 12 | 29 | 19 | 23 | 10 mm | tr (trace (6.5-9 mm)) | inhibit the growth | 10 mm
CC(=O)NC1C(OC2OC(CC(O)C3OC(n4ccc(=O)[nH]c4=O)C(O)C3O)C(O)C(O)C2NC(=O)/C=C/CCCCCCCCC(C)C)OC(CO)C(O)C1O (stereo not drawn) [Tunicamycin C] | 14 | 36 | 28 | 16 | 10 mm | – | inhibit the growth | tr (trace (6.5-9 mm))
CC(=O)NC1C(OC2OC(CC(O)C3OC(n4ccc(=O)[nH]c4=O)C(O)C3O)C(O)C(O)C2NC(=O)/C=C/CCCCCCCCCCCC(C)C)OC(CO)C(O)C1O (stereo not drawn) [Tunicamycin D] | 11 | 27 | 19 | 13 | tr (trace (6.5-9 mm)) | tr (trace (6.5-9 mm)) | inhibit the growth | tr (trace (6.5-9 mm))
